Assay results as given in patent US5101059A, “Amino acid protecting groups” (Research Corporation Technologies, Inc., priority 1989, dated 1992).

Assays:
Type in all cases: physicochemical
[1] = Stability of 9-xanthenylmethyl carbanilate towards catalytic hydrogenolysis; conditions: 5% Pd/C and palladium acetate, 40 psi hydrogen, 24 hours
Protocol: 5. Stability of 9-Xanthenylmethyl Carbanilate Towards Catalytic Hydrogenolysis: To a solution of 300 mg of Xmoc-aniline in 30 mL of EtOAc and 10 mL of 100% EtOH was added 30 mg of 5% palladium on charcoal and 30 mg of palladium acetate. The mixture was shaken under hydrogen at a pressure of 40 psi in a Parr apparatus for 24 hours. […] 178°-181° C., the ^1 H NMR and IR spectra of which matched that of an authentic sample.

[2] = Solubility of TMS-Fmoc and dichloro-Xmoc derivatives versus Fmoc analogs
Protocol: This latter property is particularly important when peptide synthesis is carried out in solution.

[3] = General statements on cleavage by piperidine or fluoride ion; conditions: piperidine
[4] = Base deblocking of substituted urethanes (U-PCA) by various amines; conditions: dichloromethane, room temperature
Excerpt: 1. General Procedure for Studying the Base Deblocking of the Urethanes Fmoc-PCA, BTS-Fmoc-PCA, DT-Fmoc-PCA, and TMS-Fmoc-PCA: A mixture of urethane (0.05 mmol) in a solution prepared from an equal volume of base (2.5 mmol, 50 eq.) and dichloromethane was stirred at room temperature. The course of the reaction was monitored by TLC with an eluant consisting of Skelly B--ether (3:1).

[5] = Stability of substituted Fmoc-PCA in acetic acid; conditions: glacial acetic acid 10 eq., CH2Cl2, room temperature, 48 hours
Protocol: 2. […] The mixture was stirred at room temperature for 48 hours. […] The mixture was washed with half sat'd NaHCO3 (2×10 mL) and water (10 mL). […] 161°-163° C., the IR and ^1 H NMR spectra of which matched that of an authentic sample.
3. Stability of 9-Trimethylsilyl-9-[…] p-Chlorocarbanilate in Acetic Acid: To a solution of 0.37 g of TMS-Fmoc-PCA in 10 mL of CH2 Cl2 was added 0.5 mL (10 eq.) of glacial acetic acid. The mixture was stirred at room temperature. […] The mixture was washed with half sat'd NaHCO3 (2×10 mL) and H2 O (10 mL). […] 124°-126° C., the ^1 H NMR and IR spectra of which matched that of an authentic sample.

[6] = Base deblocking of 9-xanthenylmethoxycarbonyl-L-phenylalanine; conditions: room temperature
Protocol: A. Base Deblocking of 9-Xanthenylmethoxycarbonyl-L-phenylalanine: 1. In DBU Solution: To a solution of 13.08 mg of Xmoc-Phe-Oh in 0.5 mL of DMF was added 0.5 mL of 1,8-diazabicyclo[5,4,0]-undec-7-ene (DBU, 100 eq.). The mixture was stirred at room temperature. The reaction was monitored by TLC with an eluant consisting of CHCl3 --CH3 OH--CH3 CO2 H (9:1:0.1). Deblocking was complete after 36 hours. 2. In TBD Solution: To a solution of 7.25 mg of Xmoc-Phe-OH in 0.1 mL of pyridine and 0.1 mL of DMF was added 50 mg (20 eq.) of 1,5,9-triazabicyclo[4,4,0]dec-5-ene (TBD). The mixture was stirred at room temperature and monitored by TLC with an eluant consisting of CHCl3 --CH3 OH--CH3 CO2 H (9:1:0.1). Deblocking was complete after 4.5 hours.

[7] = Stability of substituted Fmoc-aniline to catalytic hydrogenation; conditions: palladium on charcoal, hydrogen 1 atm, 20 hours
Protocol: 1. Deblocking of 2,7-Bistrimethyl-silyl)-9-fluorenylmethyl Carbanilate: To a solution of 0.2 g BTS-Fmoc-aniline in 15 mL of 100% ethanol and 15 mL of EtOAc was added 20 mg of 10% palladium on charcoal at 0° C. The heterogeneous mixture was stirred under a hydrogen atmosphere (1 atm) for 20 hours. The catalyst was filtered and rinsed with EtOAc (2×5 mL). The combined filtrate was washed with sat'd NH4 Cl (2×20 mL), water (20 mL), and dried over anhydrous MgSO4. After evaporating the solvent in vacuo, the residue (0.14 g) was recrystallized from 95% ethanol to afford 0.11 g (78.0%) of 2,7-bis(trimethylsilyl)-9-methylfluorene as white needles, m.p. 106.5°-108° C., identified by mixture melting point, IR, and NMR spectral comparison with an authentic sample obtained as described above.
2. Stability of 9-Trimethylsilyl-9-fluorenylmethyl Carbanilate Towards Catalytic Hydrogenation: To a mixture of 0.15 g of TMS-Fmoc-analine and 0.15 g of BTS-Fmoc-analine in 20 mL of ethyl acetate and 30 mL of 100% ethanol was added 30 mg of […] palladium on charcoal. The mixture was magnetically stirred at room temperature under a hydrogen atmosphere (1 atm) for 20 hours. The catalyst was removed by filtration and rinsed with EtOAc (2×5 mL). […] Recrystallization of the former from 95% ethanol gave 78.3 mg (74.1%) of the pure silane, m.p. 107°-108.5° C. […]

[8] = Base deblocking of R-Fmoc-aniline by various amines; conditions: for Time for Complete Deblocking / Time for Complete Scavenging of Dibenzofulvene: room temperature
Protocol: 2. General Procedure for Studying the Base Deblocking of the Urethanes R-Fmoc-aniline (R=TMS, DMPS, DPMS, DT-TMS, TIPS): A solution of urethane (0.05 mmol) in a sample of redistilled base (5 mmol, 100 eq.) was allowed to stand at room temperature. The reaction was monitored periodically by TLC with an eluant consisting of Skelly B--CH2 Cl2 (1:1). No reaction occurred according to the TLC test for urethanes having R=TIPS in the case of any of the bases tested after 24 hours.

[9] = Deblocking of R-Fmoc-aniline by fluoride ion; conditions: tetra-n-butylammonium chloride 3.0 eq., KF dihydrate 4.1 eq., acetonitrile, room temperature
Protocol: 3. General Procedure for Studying the Deblocking of Urethanes R-Fmoc-aniline (R=TMS, DMPS, DPMS, TIPS, DT-TMS) by Reaction with Fluoride Ion: To a solution of urethane (0.0513 mmol) in 0.7 mL of acetonitrile was added 45 mg (0.154 mmol, 3.0 eq.) of tetra-n-butyl-ammonium chloride and 20 mg (0.213 mmol, 4.1 eq.) of potassium fluoride dihydrate. The mixture was stirred at room temperature, the reaction being monitored by TLC with an eluant consisting of Skelly B--CH2 Cl2 (1:1).

[10] = Deblocking of R-Fmoc-aniline by trifluoroacetic acid; conditions: room temperature
Excerpt: 1. General Procedure for Studying the stability of R-Fmoc-analine (R=TMS, DMPS, DPMS, DT-TMS, TIPS) in Trifluoroacetic Acid: To a solution of urethane (0.026 mmol) in […].) of trifluoroacetic acid. The mixture was stirred at room temperature and the course of the reaction was monitored by TLC with an eluant consisting of Skelly B--dichloromethane (1:1) to note the time needed for complete deblocking of the urethanes.

Structure (SMILES)	Time for Complete Deblocking ([8]; morpholine 100 eq.)	Time for Complete Scavenging of Dibenzofulvene ([8]; morpholine 100 eq.)	Time for Complete Deblocking ([8]; piperidine 100 eq.)	Time for Complete Scavenging of Dibenzofulvene ([8]; piperidine 100 eq.)	Time for Complete Deblocking ([8]; t-butylamine 100 eq.)	Time for Complete Deblocking by Fluoride Ion [9]	Time for Complete Deblocking by Trifluoroacetic Acid [10]	further results
O=C(Nc1ccccc1)OCC1c2ccccc2Oc2ccccc21 [Xmoc-aniline, 9-Xanthenylmethyl Carbanilate]	–	–	–	–	–	–	–	recovered urethane [1]: 94.3%; stability towards catalytic hydrogenolysis (TLC) [1]: remained intact
C[Si](C)(C)C1(COC(=O)Nc2ccc(Cl)cc2)c2ccccc2-c2ccccc21 [Example 9-TMS-Fmoc]	–	–	–	–	–	–	–	solubility compared with ordinary Fmoc analogs ([2]; in non-polar solvents): enormously more soluble in non-polar solvents than ordinary Fmoc analogs; deblocking by / stability to piperidine [3]: deblocked by piperidine, although somewhat more slowly than the Fmoc group itself
C[Si](C)(C)C1(COC(=O)Nc2ccc(Cl)cc2)c2ccccc2-c2ccccc21 [TMS-Fmoc-PCA, 9-Trimethylsilyl-9-fluorenylmethyl p-Chlorocarbanilate]	–	–	–	–	–	–	–	solubility relative to that of the Fmoc analog ([2]; in CH2Cl2): 16 times; soluble to the extent of (solubility) ([2]; in CH2Cl2): 53 g/100 mL; Time for Complete Deblocking ([4]; ethanolamine 50 eq.): 150 min; Time for Complete Scavenging of Dibenzofulvene Analogs ([4]; morpholine 50 eq.): 16.5 hr; Time for Complete Deblocking ([4]; morpholine 50 eq., significant aminodibenzofulvene type adduct formed): 780 min; Time for Complete Scavenging of Dibenzofulvene Analogs ([4]; piperidine 50 eq.): 195 min; Time for Complete Deblocking ([4]; piperidine 50 eq., significant aminodibenzofulvene type adduct formed): 129 min; Time for Complete Deblocking ([4]; t-butylamine 50 eq.): > 2900 min; recovered urethane [5]: 97.5%; stability in acetic acid (TLC) [5]: no change
O=C(N[C@@H](Cc1ccccc1)C(=O)O)OCC1c2ccccc2Oc2ccccc21 [Xmoc-Phe-OH, 9-Xanthenylmethoxycarbonyl-L-phenylalanine]	–	–	–	–	–	–	–	Time for Complete Deblocking ([6]; DBU 100 eq., DMF): 36 h; Time for Complete Deblocking ([6]; TBD 20 eq., pyridine and DMF): 4.5 h
C[Si](C)(C)c1ccc2c(c1)C(COC(=O)Nc1ccccc1)c1cc([Si](C)(C)C)ccc1-2 [BTS-Fmoc-aniline, 2,7-Bis(trimethylsilyl)-9-fluorenylmethyl Carbanilate]	–	–	–	–	–	–	–	product of catalytic hydrogenation (deblocking) [7]: 2,7-bis(trimethylsilyl)-9-methylfluorene
C[Si](C)(c1ccccc1)C1(COC(=O)Nc2ccccc2)c2ccccc2-c2ccccc21 [DMPS, 9-Dimethyl(phenyl)silyl-9-fluorenylmethyl Carbanilate]	47 min	60 min	40 min	220 min	210 min	< 2 min	8 h	–
O=C(Nc1ccc(Cl)cc1)OCC1c2cc(Cl)ccc2Oc2ccc(Cl)cc21 [2,7-dichloro analog of Xmoc]	–	–	–	–	–	–	–	solubility compared with Fmoc derivatives [2]: greater solubility than Fmoc derivatives; deblocking by / stability to piperidine [3]: deblocked by piperidine as easily as the Fmoc group
CC(C)(C)c1ccc2c(c1)C(COC(=O)Nc1ccccc1)([Si](C)(C)C)c1cc(C(C)(C)C)ccc1-2 [DT-TMS, 2,7-Di-tert-butyl-9-trimethylsilyl-9-fluorenylmethyl Carbanilate]	960 min	1020 min	780 min	1080 min	> 1440 min	10 min	0.833 h	–
C[Si](C)(C)C1(COC(=O)Nc2ccccc2)c2ccccc2-c2ccccc21 [TMS-Fmoc-aniline, 9-Trimethylsilyl-9-fluorenylmethyl Carbanilate]	180 min	240 min	100 min	300 min	720 min	5 min	5 h	recovered urethane ([7]; room temperature): 93.3%
C[Si](c1ccccc1)(c1ccccc1)C1(COC(=O)Nc2ccccc2)c2ccccc2-c2ccccc21 [DPMS, 9-Diphenyl(methyl)silyl-9-fluoroenylmethyl Carbanilate]	35 min	51 min	28 min	150 min	90 min	< 2 min	18 h	–
CC(C)[Si](C(C)C)(C(C)C)C1(COC(=O)Nc2ccccc2)c2ccccc2-c2ccccc21 [TIPS, 9-Triisopropylsilyl-9-fluorenylmethyl Carbanilate]	–	–	–	–	–	1080 min	0.567 h	reaction with amine bases (TLC) ([8]; any of the bases tested, 100 eq., 24 hours): no reaction was detected
